The source of these data is ChEMBL document CHEMBL1122074 (1982).

Active and inactive are the calls of the source. No cut-off for these calls is given here.

Experiment [1] concerns the target T1, Opioid receptor (Mus musculus) (UniProt P42866+P32300+P33534). In words: In vitro relative potency to morphine (IC50, 4.4E-8M) in mouse vas deferens was determined; inactive (potentiates contraction at >/=1.6E-6M). The format is functional, tissue-based.
The target of experiment [2] is T1, Opioid receptor (Mus musculus). Kind of experiment: […] relative molar potency represents the morphine ED50 ([…])/compound ED50 using the hotplate procedure in mice; inactive at 140 umol/kg. The class given is functional.
For experiment [3], the target named is Opioid receptors; mu/kappa/delta (Homo sapiens) (UniProt P41145+P41143+P35372). Kind of experiment: In vitro relative potency to morphine (IC50, 6.8E-8M) in guinea pig ileum was determined; inactive (potentiates contraction at >/=5.4E-8M). The class given is functional, tissue-based. The conditions noted are these: Cavia porcellus, target entry is the homologue from another species.

The nature of experiment [4]: Molar potency (1/IC50) in the guinea pig ileum divided by its potency in the mouse vas deferens. The format is functional.

T1 sequence (P32300 whole entry, looked up): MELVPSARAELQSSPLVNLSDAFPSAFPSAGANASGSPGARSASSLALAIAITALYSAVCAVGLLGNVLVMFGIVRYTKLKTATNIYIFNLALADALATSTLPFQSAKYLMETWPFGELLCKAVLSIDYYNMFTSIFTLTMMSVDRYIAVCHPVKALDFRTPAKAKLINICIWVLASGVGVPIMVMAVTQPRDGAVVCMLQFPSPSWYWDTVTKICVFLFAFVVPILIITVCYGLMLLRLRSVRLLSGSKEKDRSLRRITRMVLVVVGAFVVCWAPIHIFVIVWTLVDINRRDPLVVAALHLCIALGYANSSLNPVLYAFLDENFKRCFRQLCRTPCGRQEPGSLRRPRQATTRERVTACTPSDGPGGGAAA
T1 sequence (P33534 whole entry, looked up): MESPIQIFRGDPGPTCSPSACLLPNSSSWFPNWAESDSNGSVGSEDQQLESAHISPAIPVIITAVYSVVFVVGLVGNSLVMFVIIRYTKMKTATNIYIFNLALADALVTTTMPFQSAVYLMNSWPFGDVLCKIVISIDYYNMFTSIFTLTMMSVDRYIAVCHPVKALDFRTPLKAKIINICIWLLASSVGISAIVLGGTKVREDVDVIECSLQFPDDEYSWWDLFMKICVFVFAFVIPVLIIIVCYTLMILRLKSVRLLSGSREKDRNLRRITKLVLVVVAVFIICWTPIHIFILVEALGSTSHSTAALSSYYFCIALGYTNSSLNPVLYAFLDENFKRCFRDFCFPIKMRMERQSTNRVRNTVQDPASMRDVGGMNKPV
T1 sequence (P42866 whole entry, looked up): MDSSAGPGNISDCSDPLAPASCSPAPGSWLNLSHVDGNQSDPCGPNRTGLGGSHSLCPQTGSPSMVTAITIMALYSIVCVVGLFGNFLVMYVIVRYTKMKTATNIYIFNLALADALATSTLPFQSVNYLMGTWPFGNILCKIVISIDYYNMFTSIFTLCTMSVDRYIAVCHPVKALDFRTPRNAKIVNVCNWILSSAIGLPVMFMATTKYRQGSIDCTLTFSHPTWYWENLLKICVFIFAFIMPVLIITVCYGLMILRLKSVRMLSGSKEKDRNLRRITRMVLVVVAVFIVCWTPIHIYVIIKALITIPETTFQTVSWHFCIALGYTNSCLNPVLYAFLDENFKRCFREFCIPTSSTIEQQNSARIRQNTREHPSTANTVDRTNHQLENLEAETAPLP
Chain of Opioid receptors; mu/kappa/delta (Homo sapiens) (P35372 whole entry, looked up): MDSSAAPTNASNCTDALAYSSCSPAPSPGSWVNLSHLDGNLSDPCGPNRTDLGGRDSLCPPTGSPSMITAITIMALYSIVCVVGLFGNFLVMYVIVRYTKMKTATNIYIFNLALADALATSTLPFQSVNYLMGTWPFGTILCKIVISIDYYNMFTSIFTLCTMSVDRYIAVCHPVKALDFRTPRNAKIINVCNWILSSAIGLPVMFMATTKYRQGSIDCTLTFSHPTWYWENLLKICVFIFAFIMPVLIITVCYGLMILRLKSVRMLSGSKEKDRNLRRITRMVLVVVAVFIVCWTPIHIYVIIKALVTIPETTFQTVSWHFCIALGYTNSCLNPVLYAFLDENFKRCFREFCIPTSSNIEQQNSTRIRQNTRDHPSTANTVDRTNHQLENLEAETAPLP
Chain of Opioid receptors; mu/kappa/delta (Homo sapiens) (P41143 whole entry, looked up): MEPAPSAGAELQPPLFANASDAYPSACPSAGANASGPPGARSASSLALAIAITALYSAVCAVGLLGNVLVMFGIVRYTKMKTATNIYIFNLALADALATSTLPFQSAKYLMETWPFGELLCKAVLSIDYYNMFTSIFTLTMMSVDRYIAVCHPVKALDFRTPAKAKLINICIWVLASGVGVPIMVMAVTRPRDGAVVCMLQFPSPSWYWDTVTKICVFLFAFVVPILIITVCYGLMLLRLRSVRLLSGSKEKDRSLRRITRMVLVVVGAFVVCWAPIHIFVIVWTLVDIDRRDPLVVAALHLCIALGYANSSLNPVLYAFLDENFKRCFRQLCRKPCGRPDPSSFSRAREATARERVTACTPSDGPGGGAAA
Chain of Opioid receptors; mu/kappa/delta (Homo sapiens) (P41145 whole entry, looked up): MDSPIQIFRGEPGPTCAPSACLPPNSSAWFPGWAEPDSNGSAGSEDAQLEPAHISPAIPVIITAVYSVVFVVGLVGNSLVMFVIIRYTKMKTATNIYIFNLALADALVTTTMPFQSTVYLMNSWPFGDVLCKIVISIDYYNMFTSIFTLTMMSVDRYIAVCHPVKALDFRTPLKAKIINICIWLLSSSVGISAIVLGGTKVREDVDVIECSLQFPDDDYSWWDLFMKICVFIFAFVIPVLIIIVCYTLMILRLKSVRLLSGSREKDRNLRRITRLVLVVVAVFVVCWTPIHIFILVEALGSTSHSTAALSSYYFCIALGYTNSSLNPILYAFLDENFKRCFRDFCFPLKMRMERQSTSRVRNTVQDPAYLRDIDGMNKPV

Turning to `CCC(=O)C(c1ccccc1)(c1ccccc1)[C@@H](C)[C@H](C)N(C)C` (racemic), the Relative molar potency result in experiment [1], in experiment [2] and in experiment [3] was “inactive” each time. Consider `CCC(=O)C(c1ccccc1)(c1ccccc1)[C@H](C)[C@H](C)N(C)C` (single isomer, unassigned), for which the Molar potency in experiment [4] worked out at 1.7. Still for that read-out and setting: the result for `CCC(=O)C(c1ccccc1)(c1ccccc1)[C@@H](C)[C@@H](C)N(C)C` (single isomer, unassigned) reads 6.9. Same read-out and setting: the result for `CCC(=O)C(c1ccccc1)(c1ccccc1)C(C)CN(C)C` (single isomer, unassigned) reads 2.3. Molecule `CN1CC[C@]23c4c5ccc(O)c4O[C@H]2[C@@H](O)C=C[C@H]3[C@H]1C5` [MORPHINE] had a Molar potency in experiment [4] of 6.5.
